The source made the active and inactive calls.
Assays:
[1] = CellTiter-Glo luminescence survival assay, SW480 colon tumor line, concentration-response curve, half-maximal inhibitory concentration (AID 1117338); assay type: functional
[2] = RKO cell viability reduction, dose response, CellTiter-Glo luminescence (AID 1117322); assay type: functional
[3] = cytotoxicity toward HCT116 cells – cell-based, CellTiter-Glo luminescence, IC50, dose response (AID 1117332); assay type: functional; details: HCT-116
[4] = SNU-C1 cell viability reduction, dose response, CellTiter-Glo luminescence (AID 1117323); assay type: functional, cell-based
[5] = cytotoxicity toward Colo320 cells – cell-based, CellTiter-Glo luminescence, IC50, dose response (AID 1117334); assay type: functional; details: COLO 320
[6] = cytotoxicity toward HT-29 cells – cell-based, CellTiter-Glo luminescence, IC50, dose response (AID 1117330); assay type: functional
[7] = Reduced DLD-1 viability, concentration-response, CellTiter-Glo luminescence (AID 1117352); assay type: functional
[8] = HCT116 cell viability decrease, GSK3B pretreatment – CellTiter-Glo, IC50, dose response (AID 1117339); assay type: functional; details: HCT-116
[9] = reduced cellular PGC1a acetyl-lysine signal – cell-based, cherry-picked samples, dose response (AID 720514); assay type: functional;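 note: potency may reflect raised or lowered acetylation signal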
[10] = Luminescence Cell-Based Dose Response to Identify Activators of 5'UTR Stem-Loop Driven Prion Protein mRNA Translation in H4-C Neuroglioblastoma Cells. [Related pubchem assays: 1829 (Project Summary), 1814 (Primary HTS)]; assay type: functional
[11] = Luminescence Cell-Based Dose Response HTS to Identify Activators of Luciferase Translation or Activity in H4 […] Cells. [Related pubchem assays: 1829 (Project Summary), 1814 (Primary HTS)]; assay type: functional
[12] = Luminescence Cell-Based Dose Response to Identify Activators of Luciferase Translation or Activity in H4-C Neuroglioblastoma Cells. [Related pubchem assays: 1829 (Project Summary), 1814 (Primary HTS)]; assay type: functional
[13] = Luminescence Cell-Based Dose Confirmation to Identify Activators of 5'UTR Stem-Loop Driven Alpha-Synuclein mRNA Translation in H4 Neuroglioblastoma Cells. [Related pubchem assays: 1829 (Project Summary), 1814 (Primary HTS)]; assay type: functional
[14] = Dd2 parasite growth inhibition in erythrocytes – SYBR Green, dry powder samples, set 9, dose response (AID 1159568); assay type: functional, cell-based
[15] = biological target: G-protein coupled receptor 183 (Homo sapiens, UniProt P32249); test: SAR confirmation of small molecule antagonists of the EBI2 receptor via a luminescent beta-arrestin assa.; assay type: functional
[16] = growth inhibition of yeast DHODH-expressing 3D7 parasites – SYBR Green, dry powder samples, dose response (AID 1159570); assay type: functional, cell-based;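 note: parasite growth measured after 72 hours of compound exposure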
[17] = toxicity to human HepG2 hepatoma cells – cell-based, plate reader, dry powder samples, cytotoxicity control, dose response (AID 1159569); assay type: functional;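 note: inhibitor potency with signal falling toward the positive control level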
[18] = Dd2 malaria parasite growth inhibition potency – SYBR Green, dry powder samples, dose response (AID 1159566); assay type: functional, cell-based;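 note: potency for growth inhibition with lower SYBR green DNA signal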
[19] = growth inhibition of PfATP4-mutant resistant parasites – NITD609-resistant line, SYBR Green, dry powder, dose response (AID 1159571); assay type: functional, cell-based;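 note: parasites synchronized at ring stage by sorbitol before testing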

Sequence of G-protein coupled receptor 183 (P32249 whole entry): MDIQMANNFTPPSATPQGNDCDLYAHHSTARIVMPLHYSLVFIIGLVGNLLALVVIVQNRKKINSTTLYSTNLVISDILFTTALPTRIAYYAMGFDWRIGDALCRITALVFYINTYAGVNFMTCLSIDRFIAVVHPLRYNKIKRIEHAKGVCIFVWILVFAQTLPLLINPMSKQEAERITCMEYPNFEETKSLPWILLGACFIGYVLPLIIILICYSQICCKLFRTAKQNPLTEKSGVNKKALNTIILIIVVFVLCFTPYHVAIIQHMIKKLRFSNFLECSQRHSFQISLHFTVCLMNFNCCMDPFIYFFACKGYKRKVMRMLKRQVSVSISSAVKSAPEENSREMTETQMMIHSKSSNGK

CCOC(=O)[C@H](CCc1ccccc1)N[C@@H](C)C(=O)N1C(=O)N(C)C[C@H]1C(=O)O
inactive: IC50 [1] > 20 µM | IC50 [2] > 20 µM | IC50 [3] > 20 µM | IC50 [4] > 20 µM | IC50 [5] > 20 µM | IC50 [6] > 20 µM | IC50 [7] > 20 µM | IC50 [8] > 20 µM

N#C[C@H]1[C@H](c2ccc(C#CC3CCCC3)cc2)[C@H](CO)N1C(=O)Cc1ccccn1
active: AC50 [9] 20.4 µM

COc1ccc(C(=O)/N=c2\sc3c(C)ccc(OC)c3n2C)cc1OC
inconclusive: EC50 [11] < 100 nM
active: EC50 [10] 484 nM | EC50 [12] 405 nM | EC50 [13] 256 nM

COc1ccc(S(=O)(=O)N(C)C[C@H]2Oc3ccc(NC(=O)Cc4cn(C)c5ccccc45)cc3C(=O)N([C@H](C)CO)C[C@@H]2C)cc1
active: AC50 [14] 390 nM

O=C(/C=C/c1ccc(Br)cc1)N1CCN(C(=O)c2ccccc2)CC1
active: IC50 [15] 0.62 nM

Cc1ccc(CN2CCN(C(=O)/C=C/c3ccc(Br)cc3)CC2)cc1
active: IC50 [15] 1.77 nM

COc1cccc(CN2[C@H](CO)[C@@H](c3ccccc3)C23CN(Cc2ccccc2OC)C3)c1
active: AC50 [16] 999 nM | AC50 [17] 23.9 µM | AC50 [14] 1310 nM | AC50 [18] 470 nM | AC50 [19] 875 nM

CSc1ccc(/C=C2/C(C)=C(CC(=O)O)c3cc(F)ccc32)cc1 [SULINDAC SULFIDE]
inactive: IC50 [1] 20 µM | IC50 [2] > 20 µM | IC50 [3] > 20 µM | IC50 [4] 12 µM | IC50 [5] > 20 µM | IC50 [6] > 20 µM | IC50 [7] > 20 µM | IC50 [8] > 20 µM

— ChEMBL document CHEMBL1201862, “PubChem BioAssay data set” (2004)
